This is an account of results in patent publication US20110251104A1, “COMPOSITIONS AND METHODS FOR DETECTING DEACETYLASE ACTIVITY” (priority 2010, published 2011).

For orientation: Km means the concentration of substrate that gives half-maximal velocity.

This assay deals with T1, Sirt1 (Homo sapiens, UniProt Q96EB6).
T1 construct: purchased
T1 sequence (Q96EB6 1-747): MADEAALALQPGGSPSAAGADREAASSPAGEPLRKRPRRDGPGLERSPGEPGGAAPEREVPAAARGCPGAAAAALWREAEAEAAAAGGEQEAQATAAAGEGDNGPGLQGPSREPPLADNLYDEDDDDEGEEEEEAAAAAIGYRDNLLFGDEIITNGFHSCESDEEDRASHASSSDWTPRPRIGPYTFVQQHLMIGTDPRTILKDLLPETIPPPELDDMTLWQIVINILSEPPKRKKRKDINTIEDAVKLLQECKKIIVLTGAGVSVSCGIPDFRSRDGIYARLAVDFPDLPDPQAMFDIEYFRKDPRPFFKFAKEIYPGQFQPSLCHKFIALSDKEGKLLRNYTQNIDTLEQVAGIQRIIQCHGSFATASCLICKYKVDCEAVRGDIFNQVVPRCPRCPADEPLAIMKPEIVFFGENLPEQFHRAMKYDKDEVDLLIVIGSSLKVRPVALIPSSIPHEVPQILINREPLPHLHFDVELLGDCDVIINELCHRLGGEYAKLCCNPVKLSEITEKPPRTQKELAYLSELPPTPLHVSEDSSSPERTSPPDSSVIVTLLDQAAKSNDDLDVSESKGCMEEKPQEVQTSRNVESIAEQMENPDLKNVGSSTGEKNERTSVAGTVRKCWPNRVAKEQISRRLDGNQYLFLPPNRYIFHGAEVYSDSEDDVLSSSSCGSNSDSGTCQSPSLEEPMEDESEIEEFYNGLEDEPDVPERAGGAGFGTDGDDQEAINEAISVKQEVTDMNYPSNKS
Kind of assay: Km determination for SIRT1 substrates by RapidFire mass spectrometric quantification of acetyl-ADPr. The format is biochemical. The note with it: room temperature, 50 mM Tris pH 7.5, 1/1500 dilution of enzyme, acetyl-ADPr detection. An excerpt:
A high-throughput in vitro assay using the current invention was developed against a commercially available SIRT1 enzyme preparation. The assay was then used to fully characterize the enzyme preparation through a series of kinetic and end-point assays. Commercially available ADP-ribose was used to develop mass spectrometric methods and separation techniques for sensitive and selective detection in the assay. A quantitative analysis method for acetyl-ADPr, a compound that has a chemical structure and properties similar to ADP-ribose, was developed based on the method developed for ADP-ribose.
Next, ADP-ribose was dissolved at a concentration of 1.0 micromolar in an assay buffer consisting of 50 mM Tris pH 7.5 containing 137 mM NaCl, 2.7 mM KCl, 1 mM MgCl2, 0.1% BSA, 1 mM NAD^+. Separation conditions to purify ADP-ribose from the assay buffer for mass spectrometric analysis were developed on a RapidFire® 200 High-Throughput Mass Spetrometry system. The optimized conditions for sample desalting were determined to be a sample wash with water for 3 seconds at a flow rate of 1.5 mL/min and sample elution with a 2:1:1 solution of water:acetonitrile:acetone containing 5 mM ammonium acetate for 3.5 seconds at a flow rate of 1.25 mL/min. […]

`NC(=O)c1ccc[n+]([C@@H]2O[C@H](COP(=O)([O-])OP(=O)(O)OC[C@H]3O[C@@H](n4cnc5c(N)ncnc54)[C@H](O)[C@@H]3O)[C@@H](O)[C@H]2O)c1` [NAD+, nicotimamide adenine dinucleotide]: the Km stood at 54 ± 1 µM.
